Laboratory results from patent publication EP2905024A1 (Institut Quimic De Sarriá Cets, Fundació Privada, priority 2014, dated 2015).

Key:
[1] = system: subgenomic HCV genotype 1b replicon, I389/NS3-3'/ LucUbiNeo-ET; assay: in vitro antiviral activity: luciferase assay in LucUbiNeo-ET HCV replicon cells; assay type: cell-based; details: Hepatitis C virus, 48 h, 2 days of incubation, luciferase readout, mean of duplicates
Text: (§1) To analyze the antiviral activity of the compounds, we used a stable cell line, LucUbiNeo-ET, that contains a subgenomic HCV genotype 1b replicon, I389/NS3-3'/ LucUbiNeo-ET, that express luciferase constitutively (Krieger et al, JVI 2001; 75:4614; Frese et al., JGV 2003; 84: 1253-1259). To evaluate the cellular toxicity, we use other cell line, Huh-7/Lunet (Friebe et al., JVI 2005; 79: 380-392), that originally carried a selectable luciferase HCV 1b replicon and was cured by treatment with an HCV-specific inhibitor. These cells are characterized by high permissiveness for HCV RNA replication. LucUbiNeo-ET cell line was cultured at 37°C in a humidified atmosphere with 5% CO2 in Dulbecco's modified Eagle medium (D-MEM) supplemented with high glucose concentration (4.5g/l) (Invitrogen), 10% (vol/vol) heat-inactivated fetal bovine serum (Hyclone, Cultek), 2mM L-Glutamine (Sigma-aldrich), 1mM sodium pyruvate (Sigma-aldrich), 1% MEM NEEA (Sigma-aldrich), and 0.5 mg/ml of Geneticin (G418) (Gibco, Invitrogen). Cured or Huh-7/Lunet cell line was maintained at the same conditions as described above without the addition of Geneticin.
(§2) Antiviral activity was carried out in white-clear bottom 96-well plates, and cytotoxicity assays were performed in clear 96-well plates. Cells were seeded at a density of 10^4/well in 100ul D-MEM without selection of antibiotics. After 24h, nine fivefold serial dilution of compounds, with 3 replicates at each dilution, were prepared in D-MEM and added to the appropriate wells, yielding concentrations of 125 to 0,00032 ug/ml in a final volume of 100 ul of D-MEM. Following 2 days of incubation, we determined the antiviral activity (EC50) by quantifying the luciferase with the Luciferase Bright Glo assay (Promega). Briefly, LucUbiNeo-ET cells were harvested with the addition of 100 ul of luciferase per well, and after 2 minutes of shaking, the light was read in a Luminometer Fluoroskan Ascent FL. Toxicity (CC50) was analysed in the Lunet/HuH7 cells by the addition of 10 ul of MTT (3-(4,5-dimethylthiazol-2-yl)-2,5-diphenyltetrazolium bromide) per well. After 4h of incubation at 37°C in a humidified atmosphere with 5% CO2, the amount of formazan produced was quantified spectrophotometrically at 550/620 nm [C. Pannecouque et al, Nature protocol 2008; 3 (3): 427-434]. The EC50 and CC50 values were calculated for each compound. These assays were done in duplicate and the results shown in Table 1 represent the mean value of these duplicates.

[2] = cytotoxicity assay (MTT); assay type: cell-based; details: human, Lunet/HuH7 cells, 2 days of incubation, mean of duplicates; for CC50 at 48 h: huh-7/lunet cells; for CC50 at 2 days: Huh-7/Lunet cells (cured HCV replicon cells)
Text: as §1, §2

| Structure (SMILES) | EC50 [1] | CC50 at 48 h [2] | CC50 at 2 days [2] |
| --- | --- | --- | --- |
| O=C1Nc2nc(Oc3ccccc3)nc(On3nnc4ccccc43)c2CC1c1ccc(F)cc1 (stereo not drawn) [Example 3, 4-((1H-benzo[d][1,2,3]triazol-1-yl)oxy)-6-(4-fluorophenyl)-2-phenoxy-3,4,5,6-tetrahydropyrido[2,3-d]pyrimidine-7(8H)-one] | 5 to 22 µM | ≥ 25 µM | – |
| O=C1Nc2nc(Nc3ccccc3)nc(On3nnc4ccccc43)c2CC1c1ccc(F)cc1 (stereo not drawn) [Example 4] | 1 to 5 µM | 10 to 25 µM | – |
| O=C1Nc2nc(Nc3ccccc3)nc(On3nnc4ccccc43)c2CC1c1ccc(Cl)cc1Cl (stereo not drawn) [Example 6, 4-((1H-benzo[d][1,2,3]triazol-1-yl)oxy)-6-(2,4-dichlorophenyl)-2-(phenylamino)-5,6-dihydropyrido[2,3-d]pyrimidine-7(8H)-one] | 1 to 5 µM | – | < 10 µM |
| CCCOCCNc1nc(Nc2ccccc2)nc2c1CC(c1c(Cl)cccc1Cl)C(=O)N2 (stereo not drawn) [Example 11, 6-(2,6-dichlorophenyl)-2-(phenylamino)-4-((2-propoxyethyl)amino)-5,6-dihydropyrido[2,3-d]pyrimidine-7(8H)-one] | 5 to 22 µM | – | ≥ 25 µM |
| COCCOc1nc(N)nc2c1CC(c1c(Cl)cccc1Cl)C(=O)N2 (stereo not drawn) [Example 13, 2-amino-6-(2,6-dichlorophenyl)-4-(2-methoxyethoxy)-5,6-dihydropyrido[2,3-d]pyrimidine-7(8H)-one] | 5 to 22 µM | – | ≥ 25 µM |
| O=C1Nc2nc(Nc3ccccc3)[nH]c(=O)c2CC1c1ccccc1 (stereo not drawn) [Example 18, 6-phenyl-2-(phenylamino)-5,6-dihydropyrido[2,3-d]pyrimidine-4,7(3H,8H)-dione] | 1 to 5 µM | – | ≥ 25 µM |
| O=C1Nc2nc(Nc3ccccc3)[nH]c(=O)c2CC1c1cccc2ccccc12 (stereo not drawn) [Example 20, 6-(naphthalen-1-yl)-2-(phenylamino)-5,6-dihydropyrido[2,3-d]pyrimidine-4,7(3H,8H)-dione] | 5 to 22 µM | – | 10 to 25 µM |
| O=C1Nc2nc(NCc3ccccc3)[nH]c(=O)c2CC1c1c(Cl)cccc1Cl (stereo not drawn) [Example 22, 2-(benzylamino)-6-(2,6-dichlorophenyl)-5,6-dihydropyrido [2,3-d]pyrimidine-4,7(3H,8H)-dione] | 5 to 22 µM | – | ≥ 25 µM |
| CCCOCCNc1nc(N)nc2[nH]c(=O)c(-c3ccc(F)cc3)cc12 [Example 24, 2-amino-6-(4-fluorophenyl)-4-((2-propoxyethyl)amino) pyrido[2,3-d]pyrimidine-7(8H)-one] | 1 to 5 µM | – | ≥ 25 µM |
| CCCCCNc1nc(N)nc2[nH]c(=O)c(-c3c(Cl)cccc3Cl)cc12 [Example 28, 2-amino-6-(2,6-dichlorophenyl)-4-(pentylamino)pyrido[2,3-d]pyrimidine-7(8H)-one] | 1 to 5 µM | – | 10 to 25 µM |
| O=c1[nH]c2nc(Nc3ccccc3)[nH]c(=O)c2cc1-c1ccc(F)cc1 [Example 29, 6-(4-fluorophenyl)-2-(phenylamino)pyrido[2,3-d]pyrimidine-4,7(3H,8H)-dione] | < 1 µM | – | 10 to 25 µM |
| O=c1[nH]c2nc(Nc3ccccc3)[nH]c(=O)c2cc1-c1ccccc1 [Example 30, 6-phenyl-2-(phenylamino)pyrido[2,3-d]pyrimidine-4,7(3H,8H)-dione] | 5 to 22 µM | – | ≥ 25 µM |
| COc1ccc(Nc2nc3[nH]c(=O)c(-c4ccc(F)cc4)cc3c(=O)[nH]2)cc1 [Example 31, 6-(4-fluorophenyl)-2-((4-methoxyphenyl)amino)pyrido[2,3-d]pyrimidine-4,7(3H,8H)-dione] | 5 to 22 µM | – | ≥ 25 µM |
| CCCOCCNc1nc(Oc2ccccc2)nc2[nH]c(=O)c(-c3ccc(F)cc3)cc12 [Example 32, 6-(4-fluorophenyl)-2-phenoxy-4-((2-propoxyethyl)amino) pyrido[2,3-d]pyrimidine-7(8H)-one] | 1 to 5 µM | – | ≥ 25 µM |
| Nc1nc(Nc2ccccc2)nc2[nH]c(=O)c(-c3c(F)cccc3F)cc12 [Example 34, 4-amino-6-(2,6-difluorophenyl)-2-(phenylamino)pyrido[2,3-d]pyrimidine-7(8H)-one] | 5 to 22 µM | – | < 10 µM |
| Nc1nc(Nc2ccccc2)nc2[nH]c(=O)c(-c3c(Br)cccc3Br)cc12 [Example 36, 4-amino-6-(2,6-dibromophenyl)-2-(phenylamino)pyrido[2,3-d]pyrimidine-7(8H)-one] | 5 to 22 µM | – | ≥ 25 µM |
| Nc1nc(Nc2ccccc2)nc2[nH]c(=O)c(-c3ccccc3)cc12 [Example 37, 4-amino-6-phenyl-2-(phenylamino)pyrido[2,3-d]pyrimidine-7(8H)-one] | < 1 µM | – | 10 to 25 µM |
| CCCOCCNc1nc(N)nc2c1cc(-c1ccc(F)cc1)c(=O)n2C [Example 41, 2-amino-6-(4-fluorophenyl)-8-methyl-4-((2-propoxyethyl)amino)pyrido[2,3-d]pyrimidine-7(8H)-one] | 1 to 5 µM | – | ≥ 25 µM |
| CCCCCNc1nc(N)nc2c1cc(-c1ccc(F)cc1)c(=O)n2C [Example 42, 2-amino-6-(4-fluorophenyl)-8-methyl-4-(pentylamino) pyrido[2,3-d]pyrimidine-7(8H)-one] | 5 to 22 µM | – | 10 to 25 µM |
| Cn1c(=O)c(-c2ccc(F)cc2)cc2c(N3CCCC3)nc(N)nc21 [Example 43] | 5 to 22 µM | ≥ 25 µM | – |
| CCCOCCOc1nc(N)nc2c1cc(-c1c(Cl)cccc1Cl)c(=O)n2C [Example 44, 2-amino-6-(2,6-dichlorophenyl)-8-methyl-4-(2-propoxyethoxy)pyrido[2,3-d]pyrimidine-7(8H)-one] | 5 to 22 µM | – | ≥ 25 µM |
| COc1nc(N)nc2c1CC(c1c(Cl)cccc1Cl)C(=O)N2C (stereo not drawn) [Example 45, 2-amino-6-(2,6-dichlorophenyl)-4-methoxy-8-methyl-5,6-dihydropyrido[2,3-d]pyrimidine-7(8H)-one] | 5 to 22 µM | – | ≥ 25 µM |
| CCCOCCNc1nc(Nc2ccccc2)nc2c1cc(-c1c(Cl)cccc1Cl)c(=O)n2C [Example 46, 6-(2,6-dichlorophenyl)-8-methyl-2-(phenylamino)-4-((2-propoxyethyl)amino)pyrido[2,3-d]pyrimidine-7(8H)-one] | 5 to 22 µM | – | ≥ 25 µM |
| Cn1c(=O)c(-c2c(F)cccc2F)cc2c(N)nc(Nc3ccccc3)nc21 [Example 47, 4-amino-6-(2,6-difluorophenyl)-8-methyl-2-(phenylamino)pyrido[2,3-d]pyrimidine-7(8H)-one] | < 1 µM | – | 10 to 25 µM |
| Cn1c(=O)c(-c2c(Cl)cccc2Cl)cc2c(N)nc(Nc3ccccc3)nc21 [Example 48, 4-amino-6-(2,6-dichlorophenyl)-8-methyl-2-(phenylamino)pyrido[2,3-d]pyrimidine-7(8H)-one] | < 1 µM | – | < 10 µM |
| Cn1c(=O)c(-c2c(Br)cccc2Br)cc2c(N)nc(Nc3ccccc3)nc21 [Example 49, 4-amino-6-(2,6-bromophenyl)-8-methyl-2-(phenylamino)pyrido[2,3-d]pyrimidine-7(8H)-one] | < 1 µM | – | < 10 µM |
| Cn1c(=O)c(-c2ccccc2)cc2c(N)nc(Nc3ccccc3)nc21 [Example 50, 4-amino-8-methyl-6-phenyl-2-(phenylamino)pyrido[2,3-d]pyrimidine-7(8H)-one] | < 1 µM | – | 10 to 25 µM |
